The results in this text go back to paper PMC9320607, “Synthesis, Biological Evaluation and Docking Studies of Ring-Opened Analogues of Ipomoeassin F” (Molecules, 2022).

This assay relates to MDA-MB-231 cells. The assay is described as follows: Resazurin-based cytotoxicity assay in MDA-MB-231 cells. It is filed as cell-based, human. The conditions noted are these: for IC50: Homo sapiens. The source says:
To investigate the impact of ring-opening, we first submitted the open-chain analogue 1 [9] to the National Cancer Institute (NCI) 60-cell line screening (Supplementary Material S1) and determined the cytotoxicity of nine newly synthesized open-chain analogues 4–12 (Figure 2, Supplementary Materials S2 and S3) against MDA-MB-231 cells (Table S1). […] Furthermore, the majority of the nine new open-chain analogues were modestly less cytotoxic towards MDA-MB-231 cells when compared to their direct ring-closed counterparts (analogues 13–21 matching with 4–12; Figures S1 and S2 and Table S1).
The human breast cancer cell line (MDA-MB-231) was maintained in a DMEM high glucose culture medium supplemented with 10% (v/v) fetal bovine serum (FBS) and 2 mM L-glutamine. Parental (Sec61α-WT) HCT-116 (human colorectal cancer cells, ATCC, CCL-247) and mutant (Sec61α-G80W) HCT-116 cells were maintained in McCoy’s 5A (modified) medium ((ThermoFisher, Waltham, MA, USA, 16600-082)) supplemented with 10% (v/v) FBS (Gibco, 10500-064) and 100 units/mL penicillin and […] streptomycin (Gibco, cat: 15140-122). All cell lines were maintained in a 5% CO2 humidified incubator at 37 °C. Cytotoxicity assays were performed in triplicate sets as previously described and viable cells were counted using an automated cell counter (Bio-Rad TC20) immediately before each experiment. Compound stock solutions in DMSO (10 mM) were diluted with supplemented culture media (MDA-MB-231 cells: high glucose DMEM; HCT116 Sec61α-WT and Sec61α-G80W cells: McCoy’s (modified) 5A) to make a series of gradient fresh working solutions at equal DMSO percentage immediately prior to each test. First, […] of cells at a cell density of […] (MDA-MB-231 cells) or 2.5 × 10^4 cells/mL (Sec61α-WT or Sec61α-G80W HCT-116 cells) were seeded in black 96-well microtiter plates (Falcon, product 353219; 2500 cells/well) and incubated at 37° C for 24 h. Subsequently, the cells were treated with either […] of the freshly made gradient working solution in a total volume of […]/well (MDA-MB-231 cells) or 25 mL of freshly made gradient in a total volume of […]/well (Sec61α-WT or Sec61α-G80W HCT-116 cells) at 37 °C for 72 h. For MDA-MB-231 cells, the media were discarded and […] fresh medium containing 10% (v/v) alamarBlue HS cell viability reagent (resazurin stock solution) (ThermoFisher, Waltham, MA, USA, A50100) was added to each well. For Sec61α-WT or Sec61α-G80W HCT-116 cells, the media was not discarded and alamarBlue HS cell viability reagent (resazurin stock solution) (ThermoFisher, Waltham, MA, USA, A50100) was added to 10% (v/v). After that, all cells were incubated at 37 °C for a further 1–3 h and the emission of each well at 620 nm was detected using a Synergy H1 Hybrid multi-mode plate reader (BioTek, Agilent Technologies, Palo Alto, CA, USA) at excitation 580 nm. […] IC50 value estimates were determined using nonlinear regression to fit data to a curve of variable slope (four parameters) using the least-squares fitting method. For HCT-116 cell IC50 curves, the top and bottom plateaus were defined as 100% and 23.70% (the mean of all data at 25 µM across all compounds), respectively.
In general terms: The colour change of resazurin is a common sign of viable cells or microbes.

[1] abbreviates: MDA-MB-231, MDA-MB-231 cells, at least three independent experiments, read-out: IC50 ± SD, ring-open.

Molecules are shown by their SMILES. Read-outs that look alike come from different tables or passages of the source.

As for `C=CCCCC(=O)CCC(=O)OCC1OC(OC2C(OC(CC=C)CCCCC)OC(C)C(OC(C)=O)C2O)C(O)C(OC(=O)C(C)=CC)C1O` (stereo not drawn) [analogue 12], the IC50 under setting [1] was 5.6 µM.

On to `C#CCOc1ccc(C=CC(=O)OC2C(COC(=O)CCC(=O)CCCC=C)OC(OC3C(OC(CC=C)CCCCC)OC(C)C(OC(C)=O)C3O)C(O)C2OC(=O)C(C)=CC)cc1` (stereo not drawn) [analogue 4], for which the IC50 runs as follows: (MDA-MB-231, 72 h, MDA-MB-231 cells, 72 h, read-out: IC50 (cytotoxicity)) about 0.168 µM; under setting [1], 0.168 ± 0.019 µM. In addition, the “loss in activity when compared to 1” value (MDA-MB-231 cells IC50) is reported as 3–4 fold.

`C=CCCCC(=O)CCC(=O)OCC1OC(OC2C(OC(CC=C)CCCCC)OC(C)C(O)C2O)C(O)C(OC(=O)C(C)=CC)C1OC(=O)C=Cc1ccccc1` (stereo not drawn) [analogue 7]: the IC50 under setting [1] came out at 3.89 µM.

Consider `C=CCCCC(=O)CCC(=O)OCC1OC(OC2C(OC(CC=C)CCCCC)OC(C)C(OC(C)=O)C2O)C(O)C(OC(=O)C(C)=CC)C1OC(=O)CCc1ccccc1` (stereo not drawn) [analogue 9], for which, under setting [1], the IC50 amounted to 2.17 µM.

`C=CCCCC(=O)CCC(=O)OCC1OC(OC2C(OC(CC=C)CCCCC)OC(C)C(OC(C)=O)C2O)C(O)C(O)C1OC(=O)C=Cc1ccccc1` (stereo not drawn) [analogue 11]: under setting [1], the concentration for half-maximal inhibition (IC50) was 6.32 µM.

As for `C=CCCCC(=O)CCC(=O)OCC1OC(OC2C(OC(CC=C)CCCCC)OC(C)C(OC(C)=O)C2O)C(O)C(OC(=O)C(C)=CC)C1OC(=O)C(C)=CC` (stereo not drawn) [analogue 10], the IC50 under setting [1] was determined as 2.74 µM.

Turning to `C=CCCCC(=O)CCC(=O)OCC1OC(OC2C(OC(CC=C)CCCCC)OC(C)C(OC(C)=O)C2O)C(O)C(OC(=O)C(C)=CC)C1OC(=O)c1ccccc1` (stereo not drawn) [analogue 8], under setting [1], the IC50 turned out to be 4.61 µM.

By IC50 is commonly meant the midpoint of a concentration-inhibition curve.
